Results on 17 compounds are retold here after ChEMBL document CHEMBL1201862, “PubChem BioAssay data set” (2004).

Structures are written as SMILES. The source made the active and inactive calls.

Assay [1] concerns the target T1, DNA repair and recombination protein RAD54-like (Homo sapiens, UniProt Q92698).
T1 sequence (Q92698 whole entry): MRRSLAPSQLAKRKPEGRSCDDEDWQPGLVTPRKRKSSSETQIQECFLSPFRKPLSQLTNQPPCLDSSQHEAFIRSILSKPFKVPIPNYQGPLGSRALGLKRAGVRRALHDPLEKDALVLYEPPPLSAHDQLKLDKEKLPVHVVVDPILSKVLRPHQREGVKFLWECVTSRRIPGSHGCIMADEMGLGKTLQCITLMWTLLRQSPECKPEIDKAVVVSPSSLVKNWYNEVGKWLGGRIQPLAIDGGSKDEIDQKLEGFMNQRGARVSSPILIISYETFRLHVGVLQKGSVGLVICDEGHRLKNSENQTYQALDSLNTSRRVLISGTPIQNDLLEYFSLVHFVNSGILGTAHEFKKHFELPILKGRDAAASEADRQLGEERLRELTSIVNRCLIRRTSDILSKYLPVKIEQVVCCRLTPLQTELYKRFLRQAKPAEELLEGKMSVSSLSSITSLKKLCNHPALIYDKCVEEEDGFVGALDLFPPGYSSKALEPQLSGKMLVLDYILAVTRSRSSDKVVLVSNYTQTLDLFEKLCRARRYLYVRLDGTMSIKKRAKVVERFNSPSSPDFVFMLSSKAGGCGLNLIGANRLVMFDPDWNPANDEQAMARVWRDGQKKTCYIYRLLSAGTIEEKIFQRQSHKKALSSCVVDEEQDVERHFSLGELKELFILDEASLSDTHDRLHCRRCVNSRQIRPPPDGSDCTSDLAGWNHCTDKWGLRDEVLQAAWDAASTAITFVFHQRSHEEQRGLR
Description: RAD54 Holliday junction migration blockers – biochemical, fluorescence, cherry-picked samples, dose series, confirmation (AID 651657). The format is functional.

Assay [2] addresses T2, Endoribonuclease toxin MazF (Escherichia coli K-12, UniProt P0AE70).
T2 sequence (P0AE70 whole entry): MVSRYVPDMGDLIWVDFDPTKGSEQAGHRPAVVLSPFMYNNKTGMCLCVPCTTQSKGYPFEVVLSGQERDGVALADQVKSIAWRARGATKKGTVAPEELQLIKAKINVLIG
The assay can be described thus: activation of MazEF endoribonuclease cleavage – biochemical, fluorescence, single-stranded RNA substrate, uHTS hits, dose response (AID 588481). Type of assay: functional.

The target of assay [3] is T2, Endoribonuclease toxin MazF. Description: substrate-only fluorescence increase artefacts – biochemical, single-stranded RNase substrate, counter-screen for MazEF activator project, dose response (AID 588502). Type of assay: functional. (In general: The purpose of a counterscreen is to sort out artefacts and off-target activity.)
Assay [4] has as its target T3, RNA-binding protein pos-1 (Caenorhabditis elegans, UniProt G5EF15).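 Note: purified POS-1 fused to maltose binding protein made in E. coli; potency of compounds blocking POS-1 binding to fluorescent RNA.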
T3 sequence (G5EF15 whole entry): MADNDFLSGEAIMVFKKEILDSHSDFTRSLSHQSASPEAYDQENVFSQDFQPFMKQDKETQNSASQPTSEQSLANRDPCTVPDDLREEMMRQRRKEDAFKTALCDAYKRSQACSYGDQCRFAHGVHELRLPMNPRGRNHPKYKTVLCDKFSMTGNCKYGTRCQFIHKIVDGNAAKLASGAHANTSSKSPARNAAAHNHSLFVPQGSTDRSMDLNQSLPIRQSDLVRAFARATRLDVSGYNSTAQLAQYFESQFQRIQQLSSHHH
Description: disruptors of C. elegans POS-1 RNA interaction – biochemical, fluorescence polarization, dose response (AID 1964). (Polarisation of emitted light reports the rotation of a fluorescent probe.)

Assay [5] addresses T4, Zinc finger protein mex-5 (Caenorhabditis elegans, UniProt Q9XUB2).
T4 sequence (Q9XUB2 whole entry): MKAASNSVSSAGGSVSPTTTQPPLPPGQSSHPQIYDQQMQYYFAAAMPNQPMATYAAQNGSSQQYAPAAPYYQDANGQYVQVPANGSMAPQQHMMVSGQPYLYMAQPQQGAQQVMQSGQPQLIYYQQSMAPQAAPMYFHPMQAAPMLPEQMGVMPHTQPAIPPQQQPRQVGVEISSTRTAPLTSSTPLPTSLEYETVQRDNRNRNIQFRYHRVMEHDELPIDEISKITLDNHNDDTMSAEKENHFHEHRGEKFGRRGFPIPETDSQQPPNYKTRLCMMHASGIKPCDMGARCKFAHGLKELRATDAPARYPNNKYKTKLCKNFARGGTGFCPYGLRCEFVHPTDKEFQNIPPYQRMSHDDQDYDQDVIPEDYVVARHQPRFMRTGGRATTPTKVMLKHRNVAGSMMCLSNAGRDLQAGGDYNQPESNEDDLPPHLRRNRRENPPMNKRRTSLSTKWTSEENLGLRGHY
Description: potency of MEX-5 RNA-binding blockers – biochemical, C. elegans, fluorescence polarization, dose response (AID 1960).

Assay [6] has as its target Peroxisome proliferator-activated receptor gamma/Nuclear receptor coactivator 1 (Homo sapiens, UniProt P37231). The assay can be described thus: TR-FRET dose response biochemical High Throughput Screening assay for agonists of the steroid receptor coactivator 1 (SRC-1) recruitment by the peroxisome proliferator-activated receptor gamma (PPAR gamma): non-selective agonists. [Related pubchem assays (depositor defined):AID1300, AID1808, AID504735, AID631]. Type of assay: protein assay.

Assay [7] has as its target Peroxisome proliferator-activated receptor gamma/Nuclear receptor coactivator 3 (Homo sapiens, UniProt P37231). The assay can be described thus: TR-FRET dose response biochemical High Throughput Screening assay for agonists of the steroid receptor coactivator 3 (SRC-3) recruitment by the peroxisome proliferator-activated receptor gamma (PPAR gamma): non-selective agonists. [Related pubchem assays: 1301 (Confirmation screen.), 1048 (Primary screen.)]. Type of assay: functional. On the technique in general: In TR-FRET formats the signal depends on donor and acceptor labels being close together.

In assay [8] the target is Peroxisome proliferator-activated receptor gamma/Nuclear receptor coactivator 2 (Homo sapiens, UniProt P37231). The assay can be described thus: TR-FRET dose response biochemical High Throughput Screening assay for agonists of the steroid receptor coactivator 2 (SRC-2) recruitment by the peroxisome proliferator-activated receptor gamma (PPAR gamma): non-selective agonists. [Related pubchem assays: 1297, 1032 ]. The format is functional.
Sequence of Peroxisome proliferator-activated receptor gamma/Nuclear receptor coactivator 2 (P37231 whole entry): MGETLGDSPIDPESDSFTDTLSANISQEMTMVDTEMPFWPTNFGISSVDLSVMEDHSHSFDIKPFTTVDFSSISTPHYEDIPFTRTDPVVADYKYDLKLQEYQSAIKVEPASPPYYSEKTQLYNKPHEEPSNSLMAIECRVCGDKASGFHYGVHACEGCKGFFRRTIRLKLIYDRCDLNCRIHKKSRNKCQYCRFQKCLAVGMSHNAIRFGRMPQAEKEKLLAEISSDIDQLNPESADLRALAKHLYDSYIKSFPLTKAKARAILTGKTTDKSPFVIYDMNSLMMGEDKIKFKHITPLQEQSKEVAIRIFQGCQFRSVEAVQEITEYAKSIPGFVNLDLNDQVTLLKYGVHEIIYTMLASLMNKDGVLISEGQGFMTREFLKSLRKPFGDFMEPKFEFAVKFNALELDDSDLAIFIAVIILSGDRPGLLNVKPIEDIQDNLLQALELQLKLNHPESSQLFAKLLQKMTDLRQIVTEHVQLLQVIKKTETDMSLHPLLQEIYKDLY
Sequence of Peroxisome proliferator-activated receptor gamma/Nuclear receptor coactivator 2 (Q15596 whole entry, further chain): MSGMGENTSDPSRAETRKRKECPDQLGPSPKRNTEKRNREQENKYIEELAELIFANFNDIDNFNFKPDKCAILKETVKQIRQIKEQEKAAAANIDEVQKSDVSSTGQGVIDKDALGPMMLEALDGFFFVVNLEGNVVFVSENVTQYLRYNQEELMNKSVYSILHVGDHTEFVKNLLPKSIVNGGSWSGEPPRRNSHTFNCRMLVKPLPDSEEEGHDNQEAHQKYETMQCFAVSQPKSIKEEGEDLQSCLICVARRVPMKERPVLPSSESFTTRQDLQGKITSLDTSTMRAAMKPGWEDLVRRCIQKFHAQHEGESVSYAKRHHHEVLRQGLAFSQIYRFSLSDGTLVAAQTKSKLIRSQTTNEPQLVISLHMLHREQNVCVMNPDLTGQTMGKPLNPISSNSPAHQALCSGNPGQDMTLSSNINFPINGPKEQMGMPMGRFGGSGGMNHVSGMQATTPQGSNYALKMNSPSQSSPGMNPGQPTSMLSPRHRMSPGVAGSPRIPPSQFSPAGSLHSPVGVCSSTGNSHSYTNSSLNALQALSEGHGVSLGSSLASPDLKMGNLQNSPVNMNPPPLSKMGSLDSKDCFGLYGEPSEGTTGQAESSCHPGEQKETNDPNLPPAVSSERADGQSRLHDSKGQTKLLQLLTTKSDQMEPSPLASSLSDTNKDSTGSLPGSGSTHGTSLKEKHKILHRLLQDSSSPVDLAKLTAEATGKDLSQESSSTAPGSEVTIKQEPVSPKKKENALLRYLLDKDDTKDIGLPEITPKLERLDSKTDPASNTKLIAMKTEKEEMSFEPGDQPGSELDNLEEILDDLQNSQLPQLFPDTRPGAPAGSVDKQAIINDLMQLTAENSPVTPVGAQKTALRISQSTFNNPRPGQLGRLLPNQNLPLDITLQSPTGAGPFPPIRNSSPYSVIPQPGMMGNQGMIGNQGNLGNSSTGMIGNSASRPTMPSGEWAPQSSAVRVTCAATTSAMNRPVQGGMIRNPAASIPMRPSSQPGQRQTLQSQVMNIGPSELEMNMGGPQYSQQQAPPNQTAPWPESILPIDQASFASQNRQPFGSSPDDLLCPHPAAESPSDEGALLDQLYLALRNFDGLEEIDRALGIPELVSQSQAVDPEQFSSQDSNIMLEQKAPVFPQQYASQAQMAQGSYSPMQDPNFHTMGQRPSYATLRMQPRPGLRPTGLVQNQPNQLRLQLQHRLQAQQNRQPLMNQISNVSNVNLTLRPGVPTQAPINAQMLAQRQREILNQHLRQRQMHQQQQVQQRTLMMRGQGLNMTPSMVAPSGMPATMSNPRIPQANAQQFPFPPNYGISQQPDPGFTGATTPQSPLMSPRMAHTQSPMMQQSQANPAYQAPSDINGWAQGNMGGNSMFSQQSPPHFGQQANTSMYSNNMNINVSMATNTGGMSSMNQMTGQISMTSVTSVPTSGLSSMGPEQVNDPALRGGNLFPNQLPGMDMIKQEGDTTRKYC

The target in assay [9] is T5, Replicative DNA helicase DnaB (Mycobacterium tuberculosis, UniProt P9WMR3).
T5 sequence (P9WMR3 whole entry): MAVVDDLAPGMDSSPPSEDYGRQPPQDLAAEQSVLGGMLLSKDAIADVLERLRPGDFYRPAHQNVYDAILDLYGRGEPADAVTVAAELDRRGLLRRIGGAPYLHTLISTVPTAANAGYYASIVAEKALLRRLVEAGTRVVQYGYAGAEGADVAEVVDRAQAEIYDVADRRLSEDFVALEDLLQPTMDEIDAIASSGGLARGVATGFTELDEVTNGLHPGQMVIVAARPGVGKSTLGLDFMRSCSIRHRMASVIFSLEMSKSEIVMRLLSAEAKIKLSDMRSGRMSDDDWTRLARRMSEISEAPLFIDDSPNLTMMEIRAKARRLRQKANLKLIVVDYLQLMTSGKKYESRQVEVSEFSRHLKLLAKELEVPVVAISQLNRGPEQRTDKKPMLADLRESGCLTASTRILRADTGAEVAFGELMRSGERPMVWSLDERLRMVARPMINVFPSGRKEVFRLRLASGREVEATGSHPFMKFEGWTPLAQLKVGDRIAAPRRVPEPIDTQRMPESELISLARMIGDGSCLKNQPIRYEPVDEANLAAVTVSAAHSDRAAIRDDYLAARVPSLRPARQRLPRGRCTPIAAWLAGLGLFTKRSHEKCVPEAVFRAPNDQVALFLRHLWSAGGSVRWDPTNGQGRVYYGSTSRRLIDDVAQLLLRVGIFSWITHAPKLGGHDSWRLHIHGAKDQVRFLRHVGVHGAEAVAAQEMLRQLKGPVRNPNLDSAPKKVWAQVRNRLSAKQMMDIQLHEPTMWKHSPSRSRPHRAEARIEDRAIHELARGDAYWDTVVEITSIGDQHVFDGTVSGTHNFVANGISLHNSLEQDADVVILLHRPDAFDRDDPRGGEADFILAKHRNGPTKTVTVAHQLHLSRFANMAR
Description: DnaB intein splicing inhibitors, dose response, biochemical, cell-free fluorescence (AID 449749). Type of assay: functional.

In a further assay the target is T6, Protein RecA (Mycobacterium tuberculosis, UniProt P9WHJ3).
T6 sequence (P9WHJ3 whole entry): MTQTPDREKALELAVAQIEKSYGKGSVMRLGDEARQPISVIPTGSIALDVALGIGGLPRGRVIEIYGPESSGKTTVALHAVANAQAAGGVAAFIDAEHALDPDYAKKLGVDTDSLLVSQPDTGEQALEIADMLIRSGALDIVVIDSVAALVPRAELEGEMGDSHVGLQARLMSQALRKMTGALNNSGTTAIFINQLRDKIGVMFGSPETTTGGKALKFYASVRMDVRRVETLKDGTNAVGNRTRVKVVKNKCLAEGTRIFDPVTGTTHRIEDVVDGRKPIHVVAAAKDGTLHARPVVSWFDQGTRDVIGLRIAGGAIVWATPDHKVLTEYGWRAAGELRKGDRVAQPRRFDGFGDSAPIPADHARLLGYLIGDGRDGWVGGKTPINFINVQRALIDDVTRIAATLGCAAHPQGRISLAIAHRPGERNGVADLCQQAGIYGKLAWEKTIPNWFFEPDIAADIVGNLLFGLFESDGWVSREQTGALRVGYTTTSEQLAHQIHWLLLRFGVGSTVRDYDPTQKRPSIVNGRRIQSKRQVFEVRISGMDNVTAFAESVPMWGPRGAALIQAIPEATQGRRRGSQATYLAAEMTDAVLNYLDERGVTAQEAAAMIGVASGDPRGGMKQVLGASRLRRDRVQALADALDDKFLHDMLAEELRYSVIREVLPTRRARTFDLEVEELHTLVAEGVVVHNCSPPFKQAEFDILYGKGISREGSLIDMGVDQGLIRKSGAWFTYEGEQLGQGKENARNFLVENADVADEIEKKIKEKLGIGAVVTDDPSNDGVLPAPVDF
The assay can be described thus: Fluorescence Cell-Free Homogeneous Dose Retest to Identify Inhibitors of RecA-Intein Splicing Activity. [Related pubchem assays (depositor defined):AID2097, AID2223, AID489010, AID492950]. Type of assay: functional.

The next assay deals with Vero. The assay can be described thus: cells. Type of assay: functional. As to conditions: Chlorocebus sabaeus.
The nature of assay [10]: intracellular Trypanosoma cruzi inhibitors in host cells – cell-based, plate reader, cherry-pick samples, set 3, dose response (AID 651818).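 Note: compounds incubated with infected cells for about four days.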 The format is functional.
Assay [11] can be described thus: P. falciparum Dd2 growth inhibitors, dose response, SYBR Green, cherry-picked samples (AID 1159567). The format is functional, cell-based.

Sequence of Peroxisome proliferator-activated receptor gamma/Nuclear receptor coactivator 3 (P37231 whole entry): as the sequence (P37231 whole entry) above
Sequence of Peroxisome proliferator-activated receptor gamma/Nuclear receptor coactivator 3 (Q9Y6Q9 whole entry, further chain): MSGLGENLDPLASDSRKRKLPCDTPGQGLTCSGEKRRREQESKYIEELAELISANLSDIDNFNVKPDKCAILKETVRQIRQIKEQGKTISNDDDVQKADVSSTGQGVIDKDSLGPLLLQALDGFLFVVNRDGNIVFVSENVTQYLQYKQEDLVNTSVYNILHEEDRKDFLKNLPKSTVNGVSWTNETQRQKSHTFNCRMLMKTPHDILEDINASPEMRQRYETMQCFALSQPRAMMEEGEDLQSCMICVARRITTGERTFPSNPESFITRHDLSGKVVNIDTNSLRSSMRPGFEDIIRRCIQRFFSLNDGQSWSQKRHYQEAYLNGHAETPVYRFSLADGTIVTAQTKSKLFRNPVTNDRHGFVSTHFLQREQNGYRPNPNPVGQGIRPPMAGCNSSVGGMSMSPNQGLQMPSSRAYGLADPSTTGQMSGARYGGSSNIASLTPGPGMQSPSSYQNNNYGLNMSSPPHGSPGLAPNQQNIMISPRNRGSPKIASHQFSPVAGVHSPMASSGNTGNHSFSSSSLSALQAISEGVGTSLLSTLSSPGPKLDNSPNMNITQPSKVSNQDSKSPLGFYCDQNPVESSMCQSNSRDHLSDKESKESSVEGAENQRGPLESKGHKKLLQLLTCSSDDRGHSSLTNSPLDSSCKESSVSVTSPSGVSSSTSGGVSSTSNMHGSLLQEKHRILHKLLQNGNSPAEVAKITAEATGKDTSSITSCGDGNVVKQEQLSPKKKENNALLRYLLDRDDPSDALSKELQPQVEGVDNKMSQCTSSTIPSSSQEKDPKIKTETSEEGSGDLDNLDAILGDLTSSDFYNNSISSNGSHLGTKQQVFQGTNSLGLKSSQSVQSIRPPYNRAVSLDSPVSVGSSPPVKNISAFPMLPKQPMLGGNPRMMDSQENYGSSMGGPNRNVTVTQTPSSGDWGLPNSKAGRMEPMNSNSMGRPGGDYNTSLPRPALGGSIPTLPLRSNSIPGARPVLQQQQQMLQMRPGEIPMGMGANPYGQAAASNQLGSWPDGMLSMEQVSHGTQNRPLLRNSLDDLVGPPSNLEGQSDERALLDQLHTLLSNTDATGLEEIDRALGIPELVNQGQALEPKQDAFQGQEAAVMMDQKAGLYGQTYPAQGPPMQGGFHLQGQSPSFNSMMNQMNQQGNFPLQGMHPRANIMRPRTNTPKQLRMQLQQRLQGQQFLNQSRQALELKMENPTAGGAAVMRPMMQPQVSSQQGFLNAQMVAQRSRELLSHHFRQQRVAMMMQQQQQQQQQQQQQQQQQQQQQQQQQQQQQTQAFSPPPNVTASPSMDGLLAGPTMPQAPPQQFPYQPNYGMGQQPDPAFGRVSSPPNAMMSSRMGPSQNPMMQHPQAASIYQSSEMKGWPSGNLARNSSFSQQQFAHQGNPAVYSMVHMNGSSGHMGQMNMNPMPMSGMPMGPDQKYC

Turning to `CN(C)CCCNc1nc(-c2ccccc2)nc2ccccc12`, the AC50 (usually the concentration giving half of the maximal activity seen) in [1] is 28.8 µM (active).

Regarding `Cc1cccc2cc3c(N)c(C(=O)N4CCc5ccccc54)sc3nc12`, the EC50 – broadly, the concentration at which the effect is half-maximal – in assay [2] was > 99 µM (inactive); in assay [3] it was 43.4 µM (inactive).

With `Cc1cccn2c(=O)c3cc(C#N)c(=O)n(CCCN4CCOCC4)c3nc12`, in assay [1], the AC50 was 48.9 µM (active).

Take `Cc1cc(/C=C2\C(=O)NC(=O)N(Cc3ccccc3)C2=O)c(C)n1C1CC1`: the EC50 in [4] was > 300 µM (not active); in assay [5], > 300 µM (not active); in assay [2], > 99 µM (inactive); in assay [3], 23.4 µM (inactive).

`N#Cc1cc2c(nc1SCc1ccccc1)CCCCC2`: the figures for the EC50 in assay [6], in assay [7] and in assay [8] were > 8.82 µM (inactive), > 79.4 µM (not active) and 12.7 µM (not active), respectively.

For the compound `COc1cccc(NC(=O)CSc2c3c(nc4ccccc24)CCCC3)c1`, the EC50 was > 79.4 µM (inactive) in [6], > 79.4 µM (not active) in assay [7], 66.1 µM (not active) in assay [8] and 3.36 µM (active) at Protein RecA. Further, the AC50 in [9] is 35.9 µM (active).

In the case of `COc1ccc(CNC(=O)C(C#N)c2nc3ccccc3nc2N2CCCC2)cc1` (centres undefined), the values for the concentration for a half-maximal effect (EC50) in assay [2] and in assay [3] were 9.99 µM (active) and 14.5 µM (active), respectively.

`COc1ccc(C(=O)CC(SCC(NC(C)=O)C(=O)O)c2ccc(Cl)cc2)cc1OC` (centres undefined): the CC50 (in general, the concentration giving 50% cytotoxicity) in the assay with Vero was 22.4 µM (active).

Take `CCn1c(=O)cc(SCC(=O)Nc2ccc(OC)c(OC)c2)c2ccccc21`: the EC50 is > 79.4 µM (inactive) in assay [6], > 79.4 µM (not active) in [7] and 53.8 µM (not active) in assay [8].

Regarding `CN1CCc2[nH]c3ccc(C(=O)NN)cc3c2C1`, the AC50 in assay [1] is 100 µM (inactive).

Take `CSC1=NP(=S)(SC)N(C)c2nc3n(c21)CCC3` (centres undefined): the EC50 in assay [6] is > 79.4 µM (inactive); in assay [7] it was > 79.4 µM (not active); in assay [8], > 79.4 µM (not active).

`CN(C)c1ccc(C=C2C=Cc3ccccc32)cc1`: the EC50 in assay [2] was > 99 µM (inactive); in assay [3], 20.7 µM (inactive).

For the compound `COc1cc2cc(c1Cl)N(C)C(=O)CC(OC(=O)C(C)N(C)C(C)=O)C1(C)OC1C(C)C1CC(O)(NC(=O)O1)C(OC)C=CC=C(C)C2` (centres undefined), in the assay with Vero, the 50% cytotoxic concentration (CC50) was < 0.05 µM (active).

On to `Cc1ccc(S(=O)(=O)Nc2ccc3c(c2)CC(=O)N([C@@H](C)CO)C[C@@H](C)[C@@H](CN(C)Cc2ccc(C(=O)Nc4ccccc4N)cc2)O3)cc1`, for which the AC50 in assay [10] is 2.94 µM (active).

In the case of `C[C@@H]1CN([C@H](C)CO)C(=O)c2cccc(NC(=O)Nc3cccc4ccccc34)c2O[C@@H]1CN(C)C(=O)Nc1ccc(F)cc1`, the figures for the AC50 in assay [10] and in [11] were 3.81 µM (active) and 3.76 µM (active), respectively.

For `Cc1ccc(S(=O)(=O)Nc2cccc3c2O[C@@H](CN(C)Cc2ccc(C(=O)Nc4ccccc4N)cc2)[C@@H](C)CN([C@H](C)CO)C3=O)cc1`, in [10], the AC50 is 5.8 µM (active).

Take `COc1ccc(S(=O)(=O)Nc2ccc3c(c2)CC(=O)N([C@@H](C)CO)C[C@H](C)[C@H](CN(C)Cc2ccc(Cl)c(Cl)c2)O3)cc1`: the AC50 in assay [10] is 5.64 µM (active).
